The values that follow are results of earlier work, collected in patent US20090030079A1 (priority 2007, published 2009).

The structures appear in SMILES notation. Like-named read-outs stand apart in the source and are kept apart here.

For series [1] the following is noted: cited from earlier work.
The conditions of series [2]: Mn^2+; cited from earlier work.
The conditions of series [3]: Fe^2+; cited from earlier work.

With `CC(C)(S)[C@@H](N)C(=O)O` [Penicillamine, 3-mercapto-D-valine], the solubility result in series [1] (in acetone) was “insoluble”; in series [1] (in alcohol), “slightly soluble”; in series [1] (in benzene), “insoluble”; in series [1] (in carbon tetrachloride), “insoluble”; in series [1] (in ether), “insoluble”; in series [1] (in water), “freely soluble”.

As for `NCCNCCNCCN` [Trientine, N,N′-bis (2-aminoethyl)-1,2-ethanediamine], the “binding stability constant (log K)” value is 4.90 in series [2] and 7.76 in series [3].
